Target: T1, trypsin-activated recombinant human renin (Homo sapiens, UniProt P00797)
T1 sequence (P00797 67-406): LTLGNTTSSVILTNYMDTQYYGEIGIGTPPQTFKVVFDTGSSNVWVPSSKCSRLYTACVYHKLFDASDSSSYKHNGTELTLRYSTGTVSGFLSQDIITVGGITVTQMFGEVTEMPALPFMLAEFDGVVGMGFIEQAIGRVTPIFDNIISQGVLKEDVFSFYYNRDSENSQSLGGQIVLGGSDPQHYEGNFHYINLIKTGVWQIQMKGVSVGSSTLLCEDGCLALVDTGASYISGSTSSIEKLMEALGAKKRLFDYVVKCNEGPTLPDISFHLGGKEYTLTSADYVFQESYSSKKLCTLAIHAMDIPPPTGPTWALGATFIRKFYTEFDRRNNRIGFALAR
Experiment: In vitro IC50 for renin, fluorescence increase of internally quenched peptide substrate (protocol of Example 2)
Type: biochemical
Conditions: protocol described in Example 2; DABCYL/EDANS peptide substrate, pH 7.0, rt
Description: The sequence of this peptide corresponds to the sequence of human angiotensinogen. The following test protocol is used: All reactions are carried out in a flat bottom white opaque microtiter plate. A 4 μL aliquot of 400 μM renin substrate (DABCYL-γ-Abu-Ile-His-Pro-Phe-His-Leu-Val-Ile-His-Thr-EDANS) in 192 μL assay buffer (50 mM BES, 150 mM NaCl, 0.25 mg/mL bovine serum albumin, pH7.0) is added to 4 μL of test compound in DMSO at various concentrations ranging from 10 μM to 1 nM final concentrations. Next, 100 μL of trypsin-activated recombinant human renin (final enzyme concentration of 0.2-2 nM) in assay buffer is added, and the solution is mixed by pipetting. The increase in fluorescence at 495 nm (excitation at 340 nm) is measured for 60-360 min at rt using a Perkin-Elmer Fusion microplate reader. The slope of a linear portion of the plot of fluorescence increase as a function of time is then determined, and the rate is used for calculating percent inhibition in relation to uninhibited control. […] The IC50 is defined as the concentration of a particular inhibitor that reduces the formation of product by 50% relative to a control sample containing no inhibitor. (Wang G. T. et al. Anal. Biochem. 1993, 210, 351; Nakamura, N. et al. J. Biochem. (Toko) 1991, 109, 741; Murakaini, K. et al. Anal Biochem. 1981, 110, 232).

`CCCCNC(=O)C[C@H](O)[C@H](CC1CCCCC1)NC(=O)N1CCC[C@@H]([C@@H](OCCNC(=O)OC)c2cccc(Cl)c2)C1` [Example 1, methyl 2-((R)-((R)-1-((2S,3S)-5-(butylamino)-1-cyclohexyl-3-hydroxy-5-oxopentan-2-ylcarbamoyl)piperidin-3-yl)(3-chlorophenyl)methoxy)ethylcarbamate] gave an IC50 of 113 nM.

— patent US7858624B2, “Piperidine and morpholine renin inhibitors” (Vitae Pharmaceuticals, Inc., priority 2006, dated 2010)
